Assay results published in article PMC12649408 (Antibiotics, 2025).
Read-outs that look alike come from different tables or passages of the source. Bridge positions count the residues as written; N and C are the ends. Ends that are not written are not given here.

Tests used:
[1] = not given; remark: listed apart in the source
[2] = not given; remark: listed apart in the source
[3] = not given; remark: listed apart in the source
[4] = not given; remark: listed apart in the source
[5] = not given; remark: listed apart in the source
[6] = not given; remark: listed apart in the source
[7] = not given; remark: listed apart in the source
C. albicans ATCC 10231 = conditions: Table 2; strain resistant to azoles and anidulafungin; Sabouraud broth, 30 °C, 24 h, 100% inhibition
Experimental: (§1) Using the two-fold serial dilution method, antifungal activities of the obtained analogues were tested against different C. albicans strains: susceptible collection strain ATCC 18804; resistant to azoles and anidulafungin collection strain ATCC 10231 and clinical isolates 9.1 and 8.2 [7].
(§2) The antifungal assay was performed by the microdilution method using 96-well microplates and Sabouraud broth as described earlier. […] After that, the plates were incubated at 30 °C for 24 h. A control without antifungals was also tested. Fungal growth was evaluated by measuring absorbance at 630 nm. […] All the experiments were performed twice in triplicate. Microscopic analysis of fungal growth was performed using inverted microscopy (Olympus, Tokyo, Japan). A 0.1% BSA solution was used for the blocking of each microplates well to prevent the adsorption of antifungal agents.

C. albicans ATCC 18804 = conditions: Sabouraud broth
Experimental: as §1, §2

[8] = tested on: C. albicans clinical isolate 8.2; conditions: Table 2; resistant clinical isolate 8.2; Sabouraud broth, 30 °C, 24 h, 100% inhibition
Experimental: as §1, §2

[9] = tested on: C. albicans clinical isolate 9.1; conditions: Table 2; resistant clinical isolate 9.1; Sabouraud broth, 30 °C, 24 h, 100% inhibition
Experimental: as §1, §2

[10] = tested on: human red blood cells (hRBCs); conditions: Table S2; 4% v/v hRBCs in PBS, 2 h, 37 °C
Experimental: All procedures were approved by the Ethics Committee of the Institute of Experimental Medicine (protocol 1/20 of 2/27/2020) and comply with the ethical principles of the Declaration of Helsinki. […] Samples were centrifuged to sediment intact red blood cells. Supernatants containing released hemoglobin were transferred to 96-well microplates, and absorbance was measured at 405 nm. Untreated hRBCs in PBS (A0) and hRBC treated with 0.1% Triton X-100 (Sigma-Aldrich) (Acontrol) were used as negative and positive controls, respectively. The percentage of hemolysis was calculated as [(Asample − A0)/(Acontrol − A0)] × 100%. The experiment was carried out twice in duplicate.

Caco-2 cell monolayer = assay: Cytotoxicity assay, resazurin method; format: cell-based, human; conditions: for СС50 Caco-2: Table S2, monolayer, 24 h in RPMI-1640, resazurin, twice in duplicate
Experimental: (§3) Cytotoxic activity of the peptides was investigated against human peripheral blood mononuclear cells (PBMCs) and the Caco-2 epithelial monolayer as an in vitro model of the intestinal barrier using a RPMI-1640 medium and resazurin-test.
(§4) In brief, Caco-2 cells in a monolayer or 2 × 10^6 PBMCs per well were incubated with serial dilutions of the peptides for 24 h in RPMI-1640. Resazurin (Sigma, St. Louis, MO, USA) was then added at a final concentration of 70 µM and the plates were incubated for 20 h. Untreated cells (F0) and cells treated by 0.1% Triton X-100 (Sigma-Aldrich) (Fcontrol) were used as negative and positive controls, respectively. Cell viability was assessed by resorufin fluorescence using a 535/595 nm filter and a PlateReader AF2200 as ((Fsample − F0)/(Fcontrol − F0)) × 100%. […] The experiment was carried out twice in duplicate.

[11] = not given; remark: listed apart in the source
[12] = not given; remark: listed apart in the source
[13] = not given; remark: listed apart in the source
[14] = not given; remark: listed apart in the source
PBMCs = assay: Cytotoxicity assay, resazurin method; format: cell-based, human; conditions: Table S2; 24 h in RPMI-1640, resazurin, twice in duplicate
Experimental: as §3, §4

[15] = Caco-2 monolayer, RPMI-1640, resazurin-test

Compound	Random, DPC micelles [%]	Random, SDS micelles [1] [%]	β-Turn, DPC micelles [2] [%]	β-Turn, SDS micelles [3] [%]	α-Helix, DPC micelles [4] [%]	α-Helix, SDS micelles [5] [%]	β-Sheet, DPC micelles [6] [%]	β-Sheet, SDS micelles [7] [%]	СС50 Caco-2 (Caco-2 cell monolayer) [µM]	Random, aqueous solution [11] [%]	β-Turn, aqueous solution [12] [%]	α-Helix, aqueous solution [13] [%]	β-Sheet, aqueous solution [14] [%]	further results
RECKTESNTFPGICITKPPCRKACISEKFTDGHCRGFRRRCLCTKPC (disulfide 3-47, 14-34, 20-41, 24-43) [NaD1-L5]	35.5	35.9	22.3	23.4	18.2	17.8	24.1	23	> 150	39.3	24.3	13.5	22.9	MIC (C. albicans ATCC 10231): 6.25 µM; IC50 (C. albicans ATCC 18804; 50 mM NaCl, 50% inhibition): 25 to 50 µM; MIC (C. albicans ATCC 18804; 50 mM NaCl, 100% inhibition): 50 µM; IC50 (C. albicans ATCC 18804; 150 mM NaCl, 50% inhibition): > 50 µM; MIC (C. albicans ATCC 18804; 150 mM NaCl, 100% inhibition): >50 µM; MIC (C. albicans ATCC 18804; Table 2, 30 °C, 24 h, 100% inhibition of fungal growth, absorbance 630 nm, two-fold dilutions, twice in triplicate): 6.25 µM; IC50 (C. albicans ATCC 18804; Table 3, No Salts, 50% inhibition of fungal growth): 3.13 to 6.25 µM; MIC (C. albicans ATCC 18804; Table 3, No Salts, 100% inhibition of fungal growth): 6.25 µM; IC50 (C. albicans ATCC 18804; […] CaCl2, 50% inhibition): 25 to 50 µM; MIC (C. albicans ATCC 18804; […] CaCl2, 100% inhibition): 50 µM; IC50 (C. albicans ATCC 18804; […] MgCl2, 50% inhibition): 12.5 to 25 µM; MIC (C. albicans ATCC 18804; […] MgCl2, 100% inhibition): 50 µM; MIC [8]: 25 µM; MIC [9]: 6.25 µM; Hemolysis at 100 µM [10]: no hemolysis; cytotoxic effects on Caco-2 cells (Caco-2 cell monolayer; in words, at a concentration of 150 µM): practically no cytotoxic effects
CC[C@H](C)[C@H](NC(=O)CN)C(=O)NCC(=O)N[C@@H](C)C(=O)N[C@H](C(=O)N[C@@H](CC(C)C)C(=O)N[C@@H](CCCCN)C(=O)N[C@H](C(=O)N[C@@H](CC(C)C)C(=O)N[C@H](C(=O)N[C@H](C(=O)NCC(=O)N[C@@H](CC(C)C)C(=O)N1CCC[C@H]1C(=O)N[C@@H](C)C(=O)N[C@@H](CC(C)C)C(=O)N[C@H](C(=O)N[C@@H](CO)C(=O)N[C@@H](Cc1c[nH]c2ccccc12)C(=O)N[C@H](C(=O)N[C@@H](CCCCN)C(=O)N[C@@H](CCCNC(=N)N)C(=O)N[C@@H](CCCCN)C(=O)N[C@@H](CCCNC(=N)N)C(=O)N[C@@H](CCC(N)=O)C(=O)N[C@@H](CCC(N)=O)C(N)=O)[C@@H](C)CC)[C@@H](C)CC)[C@@H](C)O)[C@@H](C)O)C(C)C)C(C)C [melittin]	–	–	–	–	–	–	–	–	2.35	–	–	–	–	concentration at which cell viability was 0% (100% cell death) (Caco-2 cell monolayer; [15]): ~12.5 µM; concentration at which cell viability was 50% (Caco-2 cell monolayer; [15]): ~2.5 µM; СС50 PBMCs (PBMCs): 6.10 µM
H-RECKTESNTFPGICITKPPCRKACISEKFTDGHCSKILRRCLCRRPC-OH (disulfide 3-47, 14-34, 20-41, 24-43)	31.1	32.5	22.6	22.7	15.8	16.2	30.4	28.5	–	38.9	23.7	7.6	29.8	–
H-RECKTESNTFPGICITKPPCRKACISEKFTDGHCSKIRRRCLCRRPC-OH (disulfide 3-47, 14-34, 20-41, 24-43)	32.9	31	21.7	21.7	14.1	16.6	31.2	30.8	–	37.7	22.7	8.9	30.7	–
